Experimental data from patent US20250313563A1, “GLYCOGEN SYNTHASE KINASE 3 INHIBITORS AND USES THEREOF” (The Broad Institute, Inc., priority 2022, published 2025).
Read-outs that look alike come from different tables or passages of the source.

Tests used:
[1] = target: GSK3α (GST-full length GSK3α) (Homo sapiens (Human), UniProt P49840); experiment: GSK3α TR-FRET kinase assay; type: biochemical
In short: (§1)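 IC50s came from the normalized 665/615 TR-FRET ratio after Tb-anti-pSer641 antibody and streptavidin-d2 detection of phosphorylated biotin-glycogen synthase peptide (200 nM). ATP was 4 μM for GSK3α, 2 μM for GSK3b, or 1 mM; 1 nM enzyme, 100 min, ambient, pH 7.5, after 30-min compound preincubation.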

[2] = target: GSK3b (GST-full length GSK3b) (Homo sapiens (Human), UniProt P49841); experiment: GSK3b TR-FRET kinase assay; type: biochemical
In short: as §1

[3] = 1 nM GSK3α, 4 μM ATP, 30 minute preincubation, geometric mean, read-out: GSK3-A TR-FRET BIOCHEMICAL (TR-FRET), GMean, IC50
[4] = 1 nM GSK3α, 4 μM ATP, 30 minute preincubation, read-out: GSK3-A TR-FRET BIOCHEMICAL (TR-FRET), IC50
[5] = 1 nM GSK3b, 2 μM ATP, 30 minute preincubation, geometric mean, read-out: GSK3-B TR-FRET BIOCHEMICAL (TR-FRET), GMean, IC50
[6] = 1 nM GSK3b, 2 μM ATP, 30 minute preincubation, read-out: GSK3-B TR-FRET BIOCHEMICAL (TR-FRET), IC50
[7] = read-out: GSK3-A (TR-FRET 1 mM ATP), GMean, IC50, 1 mM ATP, geometric mean
[8] = read-out: GSK3-B (TR-FRET 1 mM ATP), GMean, IC50, 1 mM ATP, geometric mean
[9] = 1 nM GSK3α, 4 μM ATP, 30 minute preincubation, Table 16, read-out: GSK3-A TR-FRET BIOCHEMICAL (TR-FRET)
[10] = 1 nM GSK3b, 2 μM ATP, 30 minute preincubation, Table 16, read-out: GSK3-B TR-FRET BIOCHEMICAL (TR-FRET)

GSK3α (GST-full length GSK3α), sequence (P49840 whole entry): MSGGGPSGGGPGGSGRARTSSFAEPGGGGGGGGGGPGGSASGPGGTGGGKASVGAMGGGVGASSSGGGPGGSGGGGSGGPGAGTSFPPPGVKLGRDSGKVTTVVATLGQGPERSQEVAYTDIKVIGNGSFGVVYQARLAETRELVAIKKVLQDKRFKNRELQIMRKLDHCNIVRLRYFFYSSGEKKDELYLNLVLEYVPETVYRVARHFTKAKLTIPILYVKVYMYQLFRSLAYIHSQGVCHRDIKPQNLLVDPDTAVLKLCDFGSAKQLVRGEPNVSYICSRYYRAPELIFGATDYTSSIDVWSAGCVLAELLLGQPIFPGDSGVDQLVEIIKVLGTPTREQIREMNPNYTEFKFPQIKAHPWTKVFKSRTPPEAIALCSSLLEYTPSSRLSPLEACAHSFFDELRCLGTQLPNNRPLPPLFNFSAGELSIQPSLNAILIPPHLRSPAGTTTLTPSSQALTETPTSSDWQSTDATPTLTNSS
GSK3b (GST-full length GSK3b), sequence (P49841 whole entry): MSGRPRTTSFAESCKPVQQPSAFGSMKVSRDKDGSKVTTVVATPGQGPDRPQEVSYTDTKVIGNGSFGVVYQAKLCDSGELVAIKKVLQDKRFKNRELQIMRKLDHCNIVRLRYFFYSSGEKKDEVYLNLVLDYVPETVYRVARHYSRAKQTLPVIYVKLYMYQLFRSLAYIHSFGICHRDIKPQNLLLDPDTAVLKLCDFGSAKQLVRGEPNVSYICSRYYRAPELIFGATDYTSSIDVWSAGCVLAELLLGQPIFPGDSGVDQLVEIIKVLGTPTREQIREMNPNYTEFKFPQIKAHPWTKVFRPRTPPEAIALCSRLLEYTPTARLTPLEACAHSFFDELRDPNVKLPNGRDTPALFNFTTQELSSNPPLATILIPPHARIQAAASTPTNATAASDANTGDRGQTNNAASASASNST

SMILES: CC1(C)CC2=C(C(=O)N1)C1(CCN(S(=O)(=O)c3cnn(C(C)(C)C)c3)CC1)c1c[nH]nc1N2 [Compound 947835]
- IC50 [1, 3]: ≤ 100 nM
- IC50 [1, 4]: ≤ 100 nM
- IC50 [2, 5]: 100 to 1000 nM
- IC50 [2, 6]: 100 to 1000 nM

SMILES: CCn1ccc(S(=O)(=O)N2CCC3(CC2)C2=C(CC(C)(C)NC2=O)Nc2n[nH]cc23)n1 [Compound 947836]
- IC50 [1, 3]: ≤ 100 nM
- IC50 [1, 4]: ≤ 100 nM
- IC50 [2, 5]: 100 to 1000 nM
- IC50 [2, 6]: 100 to 1000 nM

SMILES: CCc1ncc(S(=O)(=O)N2CCC3(CC2)C2=C(CC(C)(C)NC2=O)Nc2n[nH]cc23)s1 [Compound 947837]
- IC50 [1, 3]: ≤ 100 nM
- IC50 [1, 4]: ≤ 100 nM
- IC50 [2, 5]: ≤ 100 nM
- IC50 [2, 6]: ≤ 100 nM

SMILES: CCC1(c2cccc(-c3ccnc(C)c3)c2)C2=C(CC(C)(C)NC2=O)Nc2n[nH]c(C(F)(F)F)c21 (stereo not shown) [Compound 947858]
- IC50 [1, 3]: ≤ 100 nM
- IC50 [2, 5]: ≤ 100 nM

SMILES: CCC1(c2cccc(S(=O)(=O)C3CC3)c2)C2=C(CC(C)(C)NC2=O)Nc2n[nH]c(C(F)(F)F)c21 (stereo not shown) [Compound 947859]
- IC50 [1, 3]: ≤ 100 nM
- IC50 [1, 7]: ≤ 100 nM
- IC50 [2, 5]: ≤ 100 nM
- IC50 [2, 8]: ≤ 100 nM

SMILES: CCC1(c2cccc(N3CCCC3)c2)C2=C(CC(C)(C)NC2=O)Nc2n[nH]c(C(F)(F)F)c21 (stereo not shown) [Compound 947860]
- IC50 [1, 3]: ≤ 100 nM
- IC50 [1, 7]: ≤ 100 nM
- IC50 [2, 5]: ≤ 100 nM
- IC50 [2, 8]: 100 to 1000 nM

SMILES: CCC1(c2cccc(-c3ccnc4c3CCC4)c2)C2=C(CC(C)(C)NC2=O)Nc2n[nH]c(C(F)(F)F)c21 (stereo not shown) [Compound 947862]
- IC50 [1, 3]: ≤ 100 nM
- IC50 [1, 7]: ≤ 100 nM
- IC50 [2, 5]: ≤ 100 nM
- IC50 [2, 8]: 100 to 1000 nM

SMILES: CCC1(c2cccc(N3CCOCC3)c2)C2=C(CC(C)(C)NC2=O)Nc2n[nH]c(C(F)(F)F)c21 (stereo not shown) [Compound 947863]
- IC50 [1, 3]: ≤ 100 nM
- IC50 [2, 5]: ≤ 100 nM

SMILES: CCC1(c2cccc(C(F)F)c2)C2=C(CC(C)(C)NC2=O)Nc2n[nH]cc21 (stereo not shown) [Compound 947864]
- IC50 [1, 3]: ≤ 100 nM
- IC50 [2, 5]: 100 to 1000 nM

SMILES: CCC1(c2cccc(-c3ccncc3F)c2)C2=C(CC(C)(C)NC2=O)Nc2n[nH]c(C(F)(F)F)c21 (stereo not shown) [Compound 947866]
- IC50 [1, 3]: ≤ 100 nM
- IC50 [2, 5]: ≤ 100 nM

SMILES: CCC1(c2cccc(OC(C)C)c2)C2=C(CC(C)(C)CC2=O)Nc2[nH]nc(C(F)(F)F)c21 (stereo not shown) [Compound 947867]
- IC50 [1, 9]: ≤ 100 nM
- IC50 [1, 7]: ≤ 100 nM
- IC50 [2, 10]: ≤ 100 nM
- IC50 [2, 8]: ≤ 100 nM

SMILES: CC[C@]1(c2cccc(-c3ccncc3F)c2)C2=C(CC(C)(C)NC2=O)Nc2n[nH]cc21 [Compound 947869]
- IC50 [1, 3]: ≤ 100 nM
- IC50 [1, 7]: ≤ 100 nM
- IC50 [2, 5]: ≤ 100 nM
- IC50 [2, 8]: 1000 to 5000 nM

SMILES: CCC1(c2cccc(S(=O)(=O)C(C)C)c2)C2=C(CC(C)(C)NC2=O)Nc2[nH]nc(C)c21 (stereo not shown) [Compound 947870]
- IC50 [1, 3]: ≤ 100 nM
- IC50 [2, 5]: 100 to 1000 nM

SMILES: CC[C@]1(c2cccc(-c3cnn(C)c3)c2)C2=C(CC(C)(C)NC2=O)Nc2n[nH]c(C(F)(F)F)c21 [Compound 947871]
- IC50 [1, 3]: ≤ 100 nM
- IC50 [2, 5]: 100 to 1000 nM

SMILES: CC[C@@]1(c2cccc(OC(C)C)c2)C2=C(CC(C)(C)CC2=O)Nc2n[nH]c(C(F)(F)F)c21 [Compound 947872]
- IC50 [1, 9]: 100 to 1000 nM
- IC50 [2, 10]: 1000 to 5000 nM

SMILES: CCC1(c2cccc(-c3ccncc3F)c2)C2=C(CC(C)(C)NC2=O)Nc2n[nH]cc21 (stereo not shown) [Compound 947874]
- IC50 [1, 3]: 100 to 1000 nM
- IC50 [2, 5]: 1000 to 5000 nM

SMILES: CCC1(c2cccc(S(=O)(=O)C(C)C)c2)C2=C(CC(C)(C)NC2=O)Nc2n[nH]c(C)c21 (stereo not shown) [Compound 947876]
- IC50 [1, 3]: ≤ 100 nM
- IC50 [1, 7]: ≤ 100 nM
- IC50 [2, 5]: ≤ 100 nM
- IC50 [2, 8]: 100 to 1000 nM

SMILES: Cc1csc(S(=O)(=O)N2CCC3(CC2)C2=C(CC(C)(C)CC2=O)Nc2n[nH]cc23)n1 [Compound 947897]
- IC50 [1, 9]: ≤ 100 nM
- IC50 [2, 10]: ≤ 100 nM

SMILES: Cn1cc(S(=O)(=O)N2CCC3(CC2)C2=C(CC(C)(C)CC2=O)Nc2n[nH]cc23)nn1 [Compound 947898]
- IC50 [1, 9]: ≤ 100 nM
- IC50 [2, 10]: 100 to 1000 nM

SMILES: Cc1ncc(S(=O)(=O)N2CCC3(CC2)C2=C(CC(C)(C)CC2=O)Nc2n[nH]cc23)s1 [Compound 947899]
- IC50 [1, 9]: ≤ 100 nM
- IC50 [2, 10]: ≤ 100 nM

SMILES: CC1(C)CC(=O)C2=C(C1)Nc1n[nH]cc1C21CCN(S(=O)(=O)c2ccc3c(c2)OCCO3)CC1 [Compound 947900]
- IC50 [1, 9]: ≤ 100 nM
- IC50 [2, 10]: ≤ 100 nM

SMILES: CC1(C)CC(=O)C2=C(C1)Nc1n[nH]cc1C21CCN(S(=O)(=O)c2cccc3ccncc23)CC1 [Compound 947901]
- IC50 [1, 9]: ≤ 100 nM
- IC50 [2, 10]: ≤ 100 nM

SMILES: CC1(C)CC(=O)C2=C(C1)Nc1n[nH]cc1C21CCN(S(=O)(=O)c2ccc(C(F)(F)F)cn2)CC1 [Compound 947902]
- IC50 [1, 9]: ≤ 100 nM
- IC50 [2, 10]: ≤ 100 nM

SMILES: CC1(C)CC(=O)C2=C(C1)Nc1n[nH]cc1C21CCN(S(=O)(=O)c2cnn(CCF)c2)CC1 [Compound 947903]
- IC50 [1, 9]: ≤ 100 nM
- IC50 [2, 10]: ≤ 100 nM

SMILES: CC1(C)CC(=O)C2=C(C1)Nc1n[nH]cc1C21CCN(S(=O)(=O)c2cnn(-c3ccccc3)c2)CC1 [Compound 947904]
- IC50 [1, 9]: ≤ 100 nM
- IC50 [2, 10]: ≤ 100 nM

SMILES: CCC1(c2cccc(-c3ccnn3C)c2)C2=C(CC(C)(COC)NC2=O)Nc2n[nH]cc21 (stereo not shown) [Compound 947905]
- IC50 [1, 3]: ≤ 100 nM
- IC50 [2, 5]: 100 to 1000 nM

SMILES: CCC1(c2cccc(-c3ccnn3C)c2)C2=C(CC(C)(COC)NC2=O)Nc2n[nH]cc21 (stereo not shown) [Compound 947907]
- IC50 [1, 3]: 1000 to 5000 nM
- IC50 [2, 5]: > 5000 nM

SMILES: CC[C@@]1(c2cccc(-c3ccnn3C)c2)C2=C(C[C@@](C)(COC)NC2=O)Nc2n[nH]cc21 [Compound 947908]
- IC50 [1, 3]: 1000 to 5000 nM
- IC50 [2, 5]: > 5000 nM

SMILES: CC[C@]1(c2cccc(-c3ccncc3C)c2)C2=C(C[C@@]3(CCCOC3)NC2=O)Nc2n[nH]cc21 [Compound 947910]
- IC50 [1, 3]: ≤ 100 nM
- IC50 [2, 5]: ≤ 100 nM

SMILES: CC[C@@]1(c2cccc(-c3ccncc3C)c2)C2=C(C[C@@]3(CCCOC3)NC2=O)Nc2n[nH]cc21 [Compound 947911]
- IC50 [1, 3]: ≤ 100 nM
- IC50 [2, 5]: ≤ 100 nM

SMILES: CCC1(c2cccc(-c3ccnn3C)c2)C2=C(CC3(CCOC3)NC2=O)Nc2n[nH]cc21 (stereo not shown) [Compound 948014]
- IC50 [1, 3]: 100 to 1000 nM
- IC50 [2, 5]: > 5000 nM

SMILES: CCC1(c2cccc(-c3ccnn3C)c2)C2=C(CC3(CCOC3)NC2=O)Nc2n[nH]cc21 (stereo not shown) [Compound 948016]
- IC50 [1, 3]: > 5000 nM
- IC50 [2, 5]: > 5000 nM

SMILES: CC[C@]1(c2cccc(-c3ccnn3C)c2)C2=C(CC3(CCCC3)NC2=O)Nc2n[nH]cc21 [Compound 948018]
- IC50 [1, 3]: ≤ 100 nM
- IC50 [2, 5]: ≤ 100 nM

SMILES: CC[C@@]1(c2cccc(-c3ccnn3C)c2)C2=C(CC3(CCCC3)NC2=O)Nc2n[nH]cc21 [Compound 948019]
- IC50 [1, 3]: 1000 to 5000 nM
- IC50 [2, 5]: > 5000 nM

SMILES: CCC1(c2cccc(-c3ccncc3Cl)c2)C2=C(CC(C)(C)NC2=O)Nc2n[nH]cc21 (stereo not shown) [Compound 948020]
- IC50 [1, 3]: 100 to 1000 nM
- IC50 [2, 5]: 100 to 1000 nM

SMILES: CCC1(c2cccc(-c3ccncc3C)c2)C2=C(CC3(CCCC3)NC2=O)Nc2n[nH]cc21 (stereo not shown) [Compound 948021]
- IC50 [1, 3]: 100 to 1000 nM
- IC50 [2, 5]: > 5000 nM

SMILES: CC1(C)CC(=O)C2=C(C1)Nc1n[nH]cc1[C@]21COC2(CN(C(=O)Cc3ccccc3)C2)C1 [Compound 948036]
- IC50 [1, 4]: 100 to 1000 nM
- IC50 [2, 6]: 100 to 1000 nM

SMILES: CC1(C)CC(=O)C2=C(C1)Nc1n[nH]cc1[C@@]21COC2(CN(C(=O)Cc3ccccc3)C2)C1 [Compound 948037]
- IC50 [1, 4]: ≤ 100 nM
- IC50 [1, 7]: ≤ 100 nM
- IC50 [2, 6]: ≤ 100 nM
- IC50 [2, 8]: ≤ 100 nM

SMILES: Cc1ccc(C(=O)N2CC3(C2)CC2(CO3)C3=C(CC(C)(C)CC3=O)Nc3n[nH]cc32)cc1C (stereo not shown) [Compound 948038]
- IC50 [1, 7]: ≤ 100 nM
- IC50 [2, 8]: 100 to 1000 nM

SMILES: Cc1ccc(C(=O)N2CC3(C2)C[C@]2(CO3)C3=C(CC(C)(C)CC3=O)Nc3n[nH]cc32)cc1C [Compound 948039]
- IC50 [1, 4]: 100 to 1000 nM
- IC50 [2, 6]: 1000 to 5000 nM
